“And” between values parts separate entries of the source, which are not always exact repeats. Identical values can stand only once.
Assays:
MDA-MB-231-Taxol-r = assay: Cell cycle DNA content assay (flow cytometry); assay type: cell-based; conditions: Homo sapiens, 24 h, Breast, Paclitaxel-selected, read-out: EC50 @ 24 hours, Sub G1
Procedure: (§1) MDA-MB-231(F11)-luc parent and taxol-resistant cells were seeded at a density of 250,000 cells/well in a 12-well plate in 1 mL of in the appropriate media, in duplicates. The next day cells were treated with AMG 900 or taxol over a 10-point concentration range with a final DMSO concentration of 0.1% in taxol-free media. After 24 hours, cells were harvested with 1× trypsin-EDTA and transferred to PCR tubes. Cells were centrifuged at 2000 rpm for 4 minutes and the supernatant was aspirated. Cells were fixed in 200 μL of ice cold 90% methanol and stored at −20° C. for at least 24 hours. Fixed cells were centrifuged at 2000 rpm for 4 minutes to remove 90% methanol. Cells were washed with wash buffer and stained with 200 μL of propidium iodide (PI) for 30 minutes at 4° C. in the dark. An additional 400 μL of PI was added before data acquisition. Data was acquired and analyzed by flow cytometry (LSRII). A threshold gate was applied according to +4N (same as ≧4N) DNA content based on DMSO control and low/high drug-treated groups. The data was represented as percentage of control for +4N DNA content positive populations. The +4N DNA content cellular EC50 values were assigned using 4-parameter equation. […] Flow cytometric-based cell cycle analysis was performed to measure the percentage of ≧4N DNA content or SubG1 DNA content positive cells. The dose-response curves for AMG 900 represent the drug concentration plotted against the percentage of ≧4N DNA content positive cells. The dose-response curves for taxol represent the drug concentration plotted against the percentage of SubG1 DNA content positive cells. The EC50 values were calculated by 4-parameter fit model.

MDA-MB-231 = assay: Cell cycle DNA content assay (flow cytometry); assay type: cell-based; conditions: Homo sapiens, 24 h; MDA-MB-231, Breast, Parent line; read-out: EC50 @ 24 hours, Sub G1
Procedure: as §1

NCI-H460 = assay: Cell cycle DNA content assay (flow cytometry); assay type: cell-based; conditions: Homo sapiens, 24 h; NCI-H460, Lung, Parent line; read-out: EC50 @ 24 hours, Sub G1
Procedure: (§2) NCI-H460 parental and NCI-H460 taxol-resistant cells were seeded at a density of 500,000 cells/well in a 6-well plate in 2 mL of appropriate complete media. The next day cells were treated with AMG 900 or taxol over a 6-point concentration range with a final DMSO concentration of 0.05% in media. After 24 hours, cells were pulsed with BrdU (1:100 dilution) and harvested. Cells were centrifuged at 1600 rpm for 4 minutes and the supernatant was aspirated. Cells were washed in 1× PBS and fixed in 900 μL of ice cold 90% methanol and stored at −20° C. Fixed cells were centrifuged at 2000 rpm for 4 minutes to remove 90% methanol. Cells were washed with 200 μL of wash buffer and stained with 200 μL of propidium iodide (PI) overnight at 4° C. in the dark. Data was acquired and analyzed by flow cytomety (LSRII). A threshold gate was applied according to +4N (same as ≧4N) DNA content and SubG1 positive populations based on DMSO-treated control and low/high drug-treated groups. The data was represented as a percentage of +4N DNA and SubG1 positive subpopulations. The +4N (same as ≧4N) DNA content or SubG1 cellular EC50 values were calculated using a 4-parameter equation. Lung tumor cell lines were treated with control (DMSO), AMG 900 or taxol over a 6-point dose range for 24 hours. Flow cytometric-based cell cycle analysis was performed to measure the percentage of ≧4N DNA content or SubG1 DNA content positive cells. The dose-response curves for AMG 900 represent the drug concentration plotted against the percentage of ≧4N DNA content positive cells. The dose-response curves for taxol represent the drug concentration plotted against the percentage of SubG1 DNA content positive cells. The EC50 values were calculated by 4-parameter fit model.

NCI-H460-Taxol-r = assay: Cell cycle DNA content assay (flow cytometry); assay type: cell-based; conditions: Homo sapiens, 24 h, Lung, Paclitaxel-selected, read-out: EC50 @ 24 hours, Sub G1
Procedure: as §2

HCT116 AZD1152-resistant = assay: Colony formation assay (FIG. 6-B); assay type: cell-based, human; conditions: both HCT116 cell lines (parental and AZD1152-resistant) compared
Procedure: Tumor cell lines were obtained from the American Type Culture Collection (ATCC) unless otherwise specified. The MDA-MB-231-PTX and NCI-H460-PTX cell lines were established by growing the cells in the presence of increasing concentrations of paclitaxel over a period of 6 months. The HCT116 AZD1152-resistant cell line was established by growing the cells in the presence of AZD1152 at 80 nmol/L. Tumor cells were treated with AMG 900, paclitaxel or AZD1152 (0.5, 5, 50 nmol/L) for 48 hours, washed twice with complete media, and cells were re-plated at a density of 5000 cells per well in drug-free complete media. Cells were grown until the DMSO control wells were confluent. Cells were stained with crystal violet dye (Sigma), washed with distilled water, and imaged using a digital scanner (Hewlett-Packard). Colony formation assay was performed with HCT116 cell lines (parental and AZD1152-resistant). Cells were treated with DMSO, AMG 900, AZD1152, or paclitaxel at the indicated concentrations for 48 hours and re-plated in complete media lacking the inhibitor. After the DMSO-treated cells reached confluence, the cells were stained with crystal violet and imaged (duplicate wells).

[1] = test system: NCI-H460-taxol resistant tumor xenografts; assay: Growth of established NCI-H460-taxol resistant xenografts (Example 4); assay type: in vivo, athymic nude mice; conditions: 12.5mpk IP QD 5 days/week × 2 wks
Procedure: To investigate whether AMG 900-induced suppression of aurora kinase activity inhibits cell proliferation, the antitumor efficacy of AMG 900 was evaluated in vivo against NCI-H460-taxol resistant tumor xenografts in athymic nude mice. Mice were dosed PO with AMG 900 (BID) either intermittently or continuously. Mice were dosed IP with paclitaxel (taxol) 5 days/week. An internal Amgen compound was used as a positive control in this study (data not shown). Tumors were measured twice per week. Treatment began on day 12 when the tumors were established. All groups were provided nutritional supplements on a daily basis throughout the study to maintain body weight. AMG 900 (free base) was formulated into suspension to concentrations of 1.5 and 0.3 mg/mL. […] The duration of the dosing phase for AMG 900 was three weeks, and two weeks for the taxol group. The tumors were measured with a digital caliper and the mice were weighed twice per week. Tumor volumes were calculated as follows: […] Tumor inhibition was calculated as follows: […] FIG. 5 illustrates the effects of AMG 900 and Taxol treatment on the growth of established H460-taxol resistant tumors. […] Tumors were measured twice per week. Treatment began 12 days after tumor implantation (arrow) when tumors were approximately 170 mm^3. Mice were dosed PO or IP once or twice daily for 3 weeks. Data represent mean ±SE for each group. *P values (not shown) correspond to statistical difference between groups treated with vehicle and AMG 900 or Taxol analyzed with repeated measure Sheffe's ANOVA over time using […]. The scheduled days listed in the legend represent days/ week. All groups were provided nutritional supplements throughout the study.

MES-SA = assay: p-Histone H3 assay (ArrayScan VTi); assay type: cell-based; conditions: Homo sapiens, 24 h, Uterine, Parent line
Procedure: (§3) MES-SA Dx5 and MES-SA cells were plated at a density of 10,000 cells/well onto 96-well plate in complete media and cultured for 24 hours. […] Cells were washed and fixed by adding 100 μL of 2× formaldehyde fixation buffer for 10 minutes and room temperature. […] Cells were immunostained with p-histone H3 antibody (5 μg/mL) and incubated at room temperature for 2 hours. Cells were washed in 100 μL of wash buffer. Next, cells were incubated with a goat anti-rabbit alexa-488 conjugated antibody (1.5 μg/mL) in wash buffer supplemented with Hoechest DNA dye (1 μg/mL) and incubated at room temperature in the dark for 30 minutes. Cells were washed twice with 100 μL of wash buffer. The 96-well plates were analyzed on an ArrayScan VTi (Cellomics) using a bioapplication algorithm (TargetActivation.V2). […] Cells were then fixed and stained with p-histone H3 antibody and counterstained with a DNA dye (Hoechest). Imaging-based analysis (ArrayScan VTi) was performed to measure the percentage of p-histone H3 positive cells. The dose-response curves represent either AMG 900 or taxol concentrations plotted against p-Histone H3 positive cells as a percentage of DMSO-treated control (POC). The EC50 values were calculated by 4-parameter fit model.

MES-SA Dx5 = assay: p-Histone H3 assay (ArrayScan VTi); assay type: cell-based; conditions: Homo sapiens, 24 h; MES-SA Dx5, Uterine, Doxorubicin-selected, P-gp overexpressing
Procedure: as §3

Question: For `CC(=O)O[C@H]1C(=O)[C@@]2(C)[C@H]([C@H](OC(=O)c3ccccc3)[C@]3(O)C[C@H](OC(=O)[C@H](O)[C@@H](NC(=O)c4ccccc4)c4ccccc4)C(C)=C1C3(C)C)[C@]1(OC(C)=O)CO[C@@H]1C[C@@H]2O` [Paclitaxel, reference compound], which EC50 (MDA-MB-231-Taxol-r) is on record?
Answer: Its EC50 is 95 nM.

Question: And the EC50 (MDA-MB-231)?
Answer: The EC50 was 2 nM.

Question: What about the EC50 (NCI-H460) of the same compound?
Answer: Its EC50 is 10 nM.

Question: What about the EC50 (NCI-H460-Taxol-r) of the same compound?
Answer: The EC50 was over 100 nM.

Question: And the “sensitivity in colony formation” value (HCT116 AZD1152-resistant)?
Answer: Its value is “equally sensitive”.

Question: And the “Tumor volume, Mean” value [1]?
Answer: The value was 1383 mm^3.

Question: And the “Tumor volume, Median” value [1]?
Answer: Its value is 1072.0 mm^3.

Question: What about the “% Inhibition (tumor growth)” value ([1]; listed as Taxol) of the same compound?
Answer: Its value is 20% and 19.7%.

Question: And the EC50 (MES-SA)?
Answer: Its EC50 is 10 nM.

Question: And the EC50 (MES-SA Dx5)?
Answer: The EC50 was over 1250 nM.

— patent publication US20120028917A1, “Use Of N-(4-((3-(2-Amino-4-Pyrimidinyl)-2-Pyridinyl)Oxy)Phenyl)-4-(4-Methyl-2-Thienyl)-1-Phthalazinamine In The Treatment Of Antimitotic Agent Resistant Cancer” (Amgen Inc., priority 2009, published 2012)
